The text below walks through data of publication PMC6058673, “Comparison of hyaluronic acid-based micelles and polyethylene glycol-based micelles on reversal of multidrug resistance and enhanced anticancer efficacy in vitro and in vivo” (Drug Delivery, 2018).

Series [1] deals with 4T1 tumor-bearing mice. As to the kind of experiment: Serum CK, CKMB, LDH and AST (organ toxicity) by ELISA kit. The note with it: 4T1-bearing mice, end of experiment; DOX-Sol vs saline, others vs DOX-Sol. Format: in vivo, BALB/c mice. Here is the method:
The toxicity of DOX formulations in vivo were evaluated by enzyme-linked immunosorbent assay (ELISA) kit. At the end of the experiment, the blood of each mouse was extracted by eyeballs and the serum was separated. Then, the activities of creatine kinase (CK), creatine kinase MB (CKMB), lactate dehydrogenase (LDH) and aspartate transaminase (AST) in serum were evaluated to investigate the organ toxicity.
A general note: An ELISA detects its analyte on a solid surface through an enzyme-linked reagent.

Another series concerns MCF-7/Adr cells. Briefly: MTT cytotoxicity assay and MDR reversal in multidrug-resistant MCF-7/Adr cells. Format: cell-based. The conditions noted are these: for resistant index (RI): MCF-7/Adr vs MCF-7; for IC50: Homo sapiens, NCI/ADR-RES, MCF-7/Adr, DOX concentration. Here is the method:
The sensitive MCF-7 and multidrug-resistant MCF-7/Adr cells were obtained from Nanjing Kaiji Biotech. Ltd. Co. (Jiangsu, China). Cells were cultured in RPMI-1640 medium containing 10% (v/v) FBS and 1% penicillin–streptomycin at 37 °C with 5% CO2. Additionally, MCF-7/Adr cells were incubated in medium with 1 μg/mL DOX.
The cytotoxicity of various formulations against MCF-7 and MCF-7/Adr cells was assessed by MTT assay. Briefly, MCF-7 and MCF-7/Adr cells were seeded in 96-well plates at a density of 5 × 10^4 cells/well/0.1 mL 1640 culture medium and cultured for 24 h. Then, the cells were treated with DOX-Sol, DOX + Cur, HA-PMs, TPGS2k-PMs and HA/TPGS2k-PMs with multiple concentrations of DOX for 48 and 72 h, respectively. The cells incubated with medium only were utilized as control. At time interval, 20 μL MTT (5 mg/mL) was added and incubated for another 4 h. After that, the medium of each well was discarded and added 200 μL DMSO. The absorbance of each well was measured at 570 nm using a microplate reader. Half-maximal inhibitory concentration (IC50), the resistant index (RI) and reversal factor (RF) were calculated and used to evaluate MDR reversal effects by micelles(Ling et al., [2010]; Wang et al., [2012]).
A general note: Tetrazolium dyes change colour on reduction, which living cells bring about.

The next series has as its system 4T1-bearing Balb/C mice. Briefly: In vivo biodistribution in tumor-bearing mice. The note with it: 4T1-bearing mice, 2 h after i.v. 10 mg DOX/kg and 10 mg Cur/kg. Here is the method: After 2 h administration, the mice were sacrificed, and the tumor, heart, liver, lung, and kidney were excised, weighed, homogenized in 0.5 mL methanol, centrifuged and analyzed by LC-MS/MS. Meanwhile, for qualitative analysis, the tumors were frozen in cryoembedding media (OCT) and sectioned at 20 μm. The sections were fixed with 4% paraformaldehyde for 10 min, stained for nuclei with DAPI, and observed by CLSM.

Series [2] in a line: In vivo pharmacokinetics after intravenous injection. The conditions noted are these: rat, i.v., DOX 5 mg/kg and Cur 5 mg/kg, analyte DOX. On the procedure: Male Sprague–Dawley rats were randomly assigned to five groups (five rats per group). DOX-Sol, DOX + Cur, TPGS2k-PMs, HA-PMs and HA/TPGS2k-PMs were injected intravenously with at the dose of 5 mg/kg DOX and 5 mg/kg Cur, respectively. About 300 μL of blood samples were collected from the orbital venous plexus and immediately centrifuged to obtain the plasma fraction. Plasma samples were extracted through methanol protein precipitation method before analyzed by LC–MS/MS system.

The subject of series [3] is 4T1 tumor-bearing mice. As to the kind of experiment: In vivo antitumor efficacy, body weight and survival. Also on record: species or system BALB/c mice. The note with it: 4T1-bearing mice, i.v. 10 mg/kg DOX. On the procedure: The antitumor efficacy and safety in vivo were evaluated using 4T1 tumor-bearing mice. Briefly, 1 × 10^6 4T1 cells were subcutaneously injected into the right axilla of the female BALB/c mice. […] Body weights and tumor volumes (V = ab^2/2, where a was major axis and b was minor axis measured by slide caliper) were measured every two days after administration. At the end of the experiment, mice were sacrificed, and then the tumors were excised, weighted and photographed.

“And” between values parts separate entries of the source, which are not always exact repeats. Identical values can stand only once.

What is called IC50 is the point on the concentration scale where inhibition reaches its midpoint. Turning to `COc1cccc2c1C(=O)c1c(O)c3c(c(O)c1C2=O)C[C@@](O)(C(=O)CO)C[C@@H]3O[C@H]1C[C@H](N)[C@H](O)[C@H](C)O1` [DOX-Sol, Doxorubicin], the “values of CKMB, CK, LDH and AST in serum” value with 4T1 tumor-bearing mice [1] is “significantly higher than those in saline-treated groups”. The “resistant index (RI)” value in the series with MCF-7/Adr cells (48h, listed as DOX) was 142 and 142.01; in the series with MCF-7/Adr cells (72h), 89.82. Moreover, the IC50 with MCF-7/Adr cells (48h) is 106 µg/mL; with MCF-7/Adr cells (72h), 45.8 µg/mL. Besides, in the series on 4T1-bearing Balb/C mice, the “DOX accumulation in tumor” value is listed as “low DOX accumulation”. Also, the “V of DOX” value in series [2] is 0.03 ± 0.02 L/kg. Further, the “death of mice during treatment” value in the series on 4T1 tumor-bearing mice [3] (10 mice per group) is listed as “five mice suddenly died after nine days treatment”. Moreover, the body weight change entry with 4T1 tumor-bearing mice [3] is given as “markedly decreased”.
